What is called IC50 is the concentration that gives 50% inhibition.

TrkA, sequence (P04629 440-796 limits assumed): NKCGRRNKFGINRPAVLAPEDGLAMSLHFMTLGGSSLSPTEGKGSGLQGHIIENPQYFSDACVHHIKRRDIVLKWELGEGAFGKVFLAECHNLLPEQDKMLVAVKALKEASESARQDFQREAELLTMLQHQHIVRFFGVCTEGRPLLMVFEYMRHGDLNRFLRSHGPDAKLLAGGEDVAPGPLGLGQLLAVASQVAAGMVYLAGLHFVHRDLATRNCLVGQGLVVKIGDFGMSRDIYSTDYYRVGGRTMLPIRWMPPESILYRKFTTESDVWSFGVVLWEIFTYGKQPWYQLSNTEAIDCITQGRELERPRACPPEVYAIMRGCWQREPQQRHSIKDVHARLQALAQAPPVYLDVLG

The assay has as its target TrkA (Homo sapiens, UniProt P04629). In words: TrkA LanthaScreen Eu Kinase Binding Assay. The settings on record: averaged IC50 values, read-out: TrkA Enzyme IC50. Also noted: 6HIS tagged cytoplasmic domain from Invitrogen, Cat. No. PV3144; purchased Invitrogen PV3144. The method, then:
TrkA binding activity was determined in a TrkA LanthaScreen™ Eu Kinase Binding Assay. 5 nM His-tagged recombinant human TrkA (6HIS tagged cytoplasmic domain from Invitrogen, Cat. No. PV3144) was incubated with 4 nM Alexa-Fluor® Tracer 236 (Invitrogen Cat. No. PV5592), 2 nM biotinylated anti-His (Invitrogen Cat. No. PV6090), and 2 nM europium-labeled Streptavidin (Invitrogen Cat. No. PV5899), in buffer (25 mM MOPS, pH 7.5, 5 mM MgCl2, 0.005% Triton X-100). Three fold serial dilutions of compounds of the invention in DMSO were added to a final percentage of 2% DMSO. After 60-minute incubation at 22° C., the reaction was measured using the EnVision mutlimode plate reader (PerkinElmer) via TR-FRET dual wavelength detection at […]. The percent of control was calculated using a ratiometric emission factor. The IC50 values were determined by fitting a four parameter model to the percent of control data.
Table A provides averaged IC50 values for compounds of the invention when tested in the assay of Example A, where A represents an averaged IC50 value <100 nM; and B represents an averaged IC50 value from 100 to 1,000 nM.
(In general: Time-resolved FRET reads energy transfer from a long-lived donor to a nearby acceptor.)
Take `COCCN1C[C@@H](NC(=O)Nc2ccc(OC)nc2-c2ccccc2)[C@H](c2ccc(F)c(F)c2)C1` [Example 16, 1-((3S,4R)-4-(3,4-difluorophenyl)-1-(2-methoxyethyl)pyrrolidin-3-yl)-3-(6-methoxy-2-phenylpyridin-3-yl)urea]: the half-inhibitory concentration (IC50) is under 100 nM.

`COCCN1C[C@@H](NC(=O)Nc2sc(C(C)(C)O)nc2-c2ccccc2)[C@H](c2ccc(F)c(F)c2)C1` [Example 51, 1-((3S,4R)-4-(3,4-difluorophenyl)-1-(2-methoxyethyl)pyrrolidin-3-yl)-3-(2-(2-hydroxypropan-2-yl)-4-phenylthiazol-5-yl)urea]: the half-maximal inhibitory concentration (IC50) was under 100 nM.

Take `COCCN1C[C@@H](NC(=O)Nc2cc(Br)cnc2-c2ccccc2)[C@H](c2ccc(F)c(F)c2)C1` [Example 6, 1-(5-bromo-2-phenylpyridin-3-yl)-3-((3S,4R)-4-(3,4-difluorophenyl)-1-(2-methoxyethyl)pyrrolidin-3-yl)urea]: the IC50 was under 100 nM.

For `COCCN1C[C@@H](NC(=O)Nc2ccc(-c3ccc(S(C)(=O)=O)cc3)nc2C)[C@H](c2ccc(F)c(F)c2)C1` [Example 17, 1-((3S,4R)-4-(3,4-difluorophenyl)-1-(2-methoxyethyl)pyrrolidin-3-yl)-3-(2-methyl-6-(4-(methylsulfonyl)phenyl)pyridin-3-yl)urea], the concentration for half-maximal inhibition (IC50) fell in the range of 100 to 1000 nM.

On to `COCCOc1ccc(NC(=O)N[C@@H]2CN(CCOC)C[C@H]2c2ccc(F)c(F)c2)c(-c2ccccc2)n1` [Example 27, 1-((3S,4R)-4-(3,4-difluorophenyl)-1-(2-methoxyethyl)pyrrolidin-3-yl)-3-(6-(2-methoxyethoxy)-2-phenylpyridin-3-yl)urea], for which the half-maximal inhibitory concentration (IC50) is under 100 nM.

Take `COCCN1C[C@@H](NC(=O)Nc2cncnc2-c2ccccc2)[C@H](c2ccc(F)c(F)c2)C1` [Example 23, 1-((3S,4R)-4-(3,4-difluorophenyl)-1-(2-methoxyethyl)pyrrolidin-3-yl)-3-(4-phenylpyrimidin-5-yl)urea]: the IC50 is under 100 nM.

In the case of `COCCN1C[C@@H](NC(=O)Nc2ccn(C)c(=O)c2-c2ccccc2)[C@H](c2ccc(F)c(F)c2)C1` [Example 33, 1-((3S,4R)-4-(3,4-difluorophenyl)-1-(2-methoxyethyl)pyrrolidin-3-yl)-3-(1-methyl-2-oxo-3-phenyl-1,2-dihydropyridin-4-yl)urea], the IC50 lay in the range of 100 to 1000 nM.

`COCCN1C[C@@H](NC(=O)Nc2ccc(Cl)nc2-c2ccccc2)[C@H](c2ccc(F)c(F)c2)C1` [Example 21, 1-(6-chloro-2-phenylpyridin-3-yl)-3-((3S,4R)-4-(3,4-difluorophenyl)-1-(2-methoxyethyl)pyrrolidin-3-yl)urea]: the concentration for half-maximal inhibition (IC50) is under 100 nM.

For the molecule `COCCN1C[C@@H](NC(=O)Nc2cc(Br)cnc2-c2ccccc2)[C@H](c2ccccc2)C1` (relative stereo) [Example 3], the IC50 was under 100 nM.

As to `COCCN1C[C@@H](NC(=O)Nc2ccc(-c3ccccc3)nc2C)[C@H](c2ccccc2)C1` [Example 8, 1-((3S,4R)-1-(2-methoxyethyl)-4-phenylpyrrolidin-3-yl)-3-(2-methyl-6-phenylpyridin-3-yl)urea], the half-maximal inhibitory concentration (IC50) is 100 to 1000 nM.

`COCCN1C[C@@H](NC(=O)Nc2cc(-c3cccnc3)cnc2C)[C@H](c2ccc(F)c(F)c2)C1` [Example 15, 1-((3S,4R)-4-(3,4-difluorophenyl)-1-(2-methoxyethyl)pyrrolidin-3-yl)-3-(6-methyl-[3,3′-bipyridin]-5-yl)urea]: the IC50 was in the range of 100 to 1000 nM.

With `COCCN1C[C@@H](NC(=O)Nc2cccnc2-c2ccccc2)[C@H](c2ccccc2)C1` (relative stereo) [Example 1, 1-(trans-1-(2-methoxyethyl)-4-phenylpyrrolidin-3-yl)-3-(2-phenylpyridin-3-yl)urea], the IC50 is under 100 nM.

Consider `COCCN1C[C@@H](NC(=O)Nc2c(-c3ccccc3)c(=O)n(C)n2C)[C@H](c2ccc(F)c(F)c2)C1` [Example 39, 1-((3S,4R)-4-(3,4-difluorophenyl)-1-(2-methoxyethyl)pyrrolidin-3-yl)-3-(1,2-dimethyl-5-oxo-4-phenyl-2,5-dihydro-1H-pyrazol-3-yl)urea], for which the 50% inhibitory concentration (IC50) is under 100 nM.

For the molecule `COCCN1C[C@@H](NC(=O)Nc2ccc(C)nc2-c2ccccc2)[C@H](c2ccc(F)cc2)C1` [Example 32, 1-((3S,4R)-4-(4-fluorophenyl)-1-(2-methoxyethyl)pyrrolidin-3-yl)-3-(6-methyl-2-phenylpyridin-3-yl)urea], the IC50 was under 100 nM.

For `COCCN1C[C@@H](NC(=O)Nc2ccc(Br)nc2-c2ccccc2)[C@H](c2ccc(F)c(F)c2)C1` [Example 11, 1-(6-bromo-2-phenylpyridin-3-yl)-3-((3S,4R)-4-(3,4-difluorophenyl)-1-(2-methoxyethyl)pyrrolidin-3-yl)urea], the 50% inhibitory concentration (IC50) was under 100 nM.

As for `COCCN1C[C@@H](NC(=O)Nc2oc(-c3ccccc3)nc2C)[C@H](c2ccccc2)C1` [Example 42, 1-((3S,4R)-1-(2-methoxyethyl)-4-phenylpyrrolidin-3-yl)-3-(4-methyl-2-phenyloxazol-5-yl)urea], the IC50 lay within 100 to 1000 nM.

For the molecule `COCCN1C[C@@H](NC(=O)Nc2ccc(S(C)(=O)=O)nc2-c2ccccc2)[C@H](c2ccc(F)c(F)c2)C1` [Example 12, 1-((3S,4R)-4-(3,4-difluorophenyl)-1-(2-methoxyethyl)pyrrolidin-3-yl)-3-(6-(methylsulfonyl)-2-phenylpyridin-3-yl)urea], the 50% inhibitory concentration (IC50) was under 100 nM.

For the molecule `COCCN1C[C@@H](NC(=O)Nc2cc(=O)n(CC(F)(F)F)nc2-c2ccccc2)[C@H](c2ccc(F)c(F)c2)C1` [Example 35, 1-((3S,4R)-4-(3,4-difluorophenyl)-1-(2-methoxyethyl)pyrrolidin-3-yl)-3-(6-oxo-3-phenyl-1-(2,2,2-trifluoroethyl)-1,6-dihydropyridazin-4-yl)urea], the IC50 fell in the range of 100 to 1000 nM.

As to `COCCN1C[C@@H](NC(=O)Nc2oc(C(C)C)nc2-c2ccccc2)[C@H](c2ccc(F)c(F)c2)C1` [Example 43, 1-((3S,4R)-4-(3,4-difluorophenyl)-1-(2-methoxyethyl)pyrrolidin-3-yl)-3-(2-isopropyl-4-phenyloxazol-5-yl)urea], the IC50 was under 100 nM.

`CCn1c(=O)c(-c2ccccc2)c(NC(=O)N[C@@H]2CN(CCOC)C[C@H]2c2ccc(F)c(F)c2)n1C` [Example 40, 1-((3S,4R)-4-(3,4-difluorophenyl)-1-(2-methoxyethyl)pyrrolidin-3-yl)-3-(1-ethyl-2-methyl-5-oxo-4-phenyl-2,5-dihydro-1H-pyrazol-3-yl)urea]: the IC50 was under 100 nM.

In the case of `COCCN1C[C@@H](NC(=O)Nc2ccc(=O)[nH]c2-c2ccccc2)[C@H](c2ccc(F)c(F)c2)C1` [Example 20, 1-((3S,4R)-4-(3,4-difluorophenyl)-1-(2-methoxyethyl)pyrrolidin-3-yl)-3-(6-oxo-2-phenyl-1,6-dihydropyridin-3-yl)urea], the half-inhibitory concentration (IC50) was under 100 nM.

In the case of `COCCN1C[C@@H](NC(=O)Nc2sc(C(=O)N(C)C)nc2-c2ccccc2)[C@H](c2ccc(F)c(F)c2)C1` [Example 52, 5-(3-((3S,4R)-4-(3,4-difluorophenyl)-1-(2-methoxyethyl)pyrrolidin-3-yl)ureido)-N,N-dimethyl-4-phenylthiazole-2-carboxamide], the IC50 was in the range of 100 to 1000 nM.

On to `CCOc1ccc(NC(=O)N[C@@H]2CN(CCOC)C[C@H]2c2ccc(F)c(F)c2)c(-c2ccccc2)n1` [Example 25], for which the concentration for half-maximal inhibition (IC50) was under 100 nM.

Regarding `CCc1ccc(NC(=O)N[C@@H]2CN(CCOC)C[C@H]2c2ccc(F)c(F)c2)c(-c2ccccc2)n1` [Example 28, 1-((3S,4R)-4-(3,4-difluorophenyl)-1-(2-methoxyethyl)pyrrolidin-3-yl)-3-(6-ethyl-2-phenylpyridin-3-yl)urea], the IC50 was under 100 nM.

In the case of `COCCN1C[C@@H](NC(=O)Nc2cc(C)cnc2-c2ccccc2)[C@H](c2ccc(F)c(F)c2)C1` [Example 30, 1-((3S,4R)-4-(3,4-difluorophenyl)-1-(2-methoxyethyl)pyrrolidin-3-yl)-3-(5-methyl-2-phenylpyridin-3-yl)urea], the IC50 is under 100 nM.

In the case of `COCCN1C[C@@H](NC(=O)Nc2c(-c3ccccc3)noc2C)[C@H](c2ccccc2)C1` (relative stereo) [Example 37, 1-((trans)-1-(2-methoxyethyl)-4-phenylpyrrolidin-3-yl)-3-(5-methyl-3-phenylisoxazol-4-yl)urea], the IC50 fell in the range of 100 to 1000 nM.

On to `COCCN1C[C@@H](NC(=O)Nc2ccc(-c3cccc(S(C)(=O)=O)c3)nc2C)[C@H](c2ccc(F)c(F)c2)C1` [Example 18, 1-((3S,4R)-4-(3,4-difluorophenyl)-1-(2-methoxyethyl)pyrrolidin-3-yl)-3-(2-methyl-6-(3-(methylsulfonyl)phenyl)pyridin-3-yl)urea], for which the IC50 fell in the range of 100 to 1000 nM.

Take `COCCN1C[C@@H](NC(=O)Nc2sc(C(C)C)nc2-c2ccccc2)[C@H](c2ccc(F)c(F)c2)C1` [Example 47, 1-((3S,4R)-4-(3,4-difluorophenyl)-1-(2-methoxyethyl)pyrrolidin-3-yl)-3-(2-isopropyl-4-phenylthiazol-5-yl)urea]: the IC50 was under 100 nM.

Source of the values: patent publication US9828360B2 (Array BioPharma Inc., priority 2012, dated 2017).
